Data: patent US20130116292A1, “NEURORESTORATION WITH R(+) PRAMIPEXOLE” (University of Virginia Patent Foundation, priority 2005, published 2013)

What was measured:
[1] = system: mitochondrial transition pore (MTP); details: induced by MPP+ and other stimuli; cited from earlier work
[2] = system: oxidative stress produced by MPP+ (ETC complex I inhibitor); details: both in vitro and in vivo; cited from earlier work
[3] = system: D2 family of dopamine receptors; details: cited from earlier work
[4] = system: dopamine neurons (MPTP toxicity); details: cellular and animal models of increased oxidative stress, including MPTP toxicity to dopamine neurons; cited from earlier work
[5] = system: patients with amyotrophic lateral sclerosis (ALS); details: 30 mg/day for up to 8 weeks
Method: Phase I clinical studies with R(+) pramipexole were conducted in patients with amyotrophic lateral sclerosis (ALS), a fatal adult neurodegenerative disease arising from the loss of motor nerve cells. […] These reports included such things as regaining the ability to speak coherently, the ability to climb stairs again, and improved motor skills in their extremities, i.e. hands and/or fingers.

Compound	effect on opening of the mitochondrial transition pore (MTP) [1]	effect on oxidative stress produced by MPP+ [2]	agonism of the D2 family of dopamine receptors [3]	neuroprotection [4]	stability in aqueous solutions	patients reporting improvements in motor function [5]	dopamine agonist activity ([3]; Schneider and Mierau, J. Med. Chem. 1987)
CCCN[C@H]1CCc2nc(N)sc2C1 [S(−) PPX]	can block the opening	reduces oxidative stress	potent agonist	neuroprotective			
CCCN[C@@H]1CCc2nc(N)sc2C1 [R(+) pramipexole, R-(+)-2-amino-4,5,6,7-tetrahydro-6-propylaminobenzathiazole]					stable in aqueous solutions	approximately half the patients	very little
